According to patent US20020086427A1, “Inducible eukaryotic expression system that regulates protein translation” (priority 2000, published 2002):

Key:
[1] = system: naturally-occurring premature stop codon mutations in the dystrophin gene; settings: mice; cited from earlier work
[2] = system: hEpo expression in C2C12 mouse myoblast cell line; assay: hEpo expression (ELISA of supernatant) in C2C12 myoblasts transfected with stop-codon-mutated hEpo constructs, with or without aminoglycoside; assay type: cell-based; settings: for induction of hEpo expression compared to cells not given aminoglycoside: 0.2 mg/ml aminoglycoside, stop-codon-mutated hEpo constructs in C2C12 cells; for read-through of the stop codon mutation: in vitro, C2C12 cells
Method: In this example, three different mutated human Epo genes (prepared as described in Example 1) were individually transfected into myoblasts and expression of the genes was subsequently regulated by application of two different aminoglycosides.
The C2C12 mouse myoblast cell line (ATCC) was maintained in DMEM, 10% fetal bovine serum, 1% penicillin/streptomycin and 1% glutamine.
C2C 12 cells were plated at […] on the afternoon before transfection. 15 μg of wildtype or mutated hEpo plasmid DNA was mixed with 50 μl of Lipofectamine (Gibco) and 2 mls of Opti-MEM (Gibco) and incubated at room temperature for 15 minutes for DNA/liposome complexes to form. Cells were washed twice with 5 mils of Opti-MEM. Two ml of Opti-MEM and the DNA/liposome complexes were added and incubated at 37° C. in 5% CO2 for 5 hours. Eight ml of growth medium (DMEM+10% FBS) was added to cells and incubated overnight at 37° C.
The following day, 10 mls of fresh growth medium was added to the cells with or without 0.2 mg/ml of one of two aminoglycosides: G418 (Sigma) or gentamycin sulfate (Sigma). Cells were allowed to incubate for an additional 72 hours and a sample of the supernatant was taken for transgene analysis at 24, 48, and 72 hours.
Supernatants from transfected cells were analyzed for hEpo expression using the Quantikine IV human Epo ELISA kit (R&D Systems). Samples were diluted within the linear range of the assay using specimen diluent and assayed using a microplate reader (Molecular Devices) at 450 nm.
In this example, a series of additional mutated human Epo constructs were prepared, into which stop codon mutations were introduced at different codon positions from those described in Example 1. These constructs were introduced into C2C12 mouse myoblasts as described in Example 2 and the inducibility of hEpo activity from these constructs using either gentamycin sulfate (GS) or G418 was examined as described in Example 2. The constructs were prepared by standard PCR mutagenesis, as described in Example 1, and introduced a stop codon mutation into the human Epo sequence at either nucleotide position 307 (pVR1012hEpo.307), position 434 (pVR1012hEpo.434), position 208 (pVR1012hEpo.208), position 214 (pVR1012hEpo.214) or position 199 (pVR1012hEpo. 199).
Data for constructs with mutations at either nucleotide position 437 (pVR1012hEpo.437), position 454 (pVR1012hEpo.454) or position 526 (pVR1012hEpo.526), prepared as described in Example 1, are included for comparison purposes.

## gentamycin sulfate
[1]
  effective dosage: 17 mg/kg
[2]
  induction of hEpo expression compared to cells not given aminoglycoside: 6-8 fold
  read-through of the stop codon mutation: 3%

## CN[C@@H]1[C@@H](O)[C@@H](O[C@@H]2[C@@H](O)[C@H](O[C@H]3O[C@H]([C@@H](C)O)[C@@H](O)[C@H](O)[C@H]3N)[C@@H](N)C[C@H]2N)OC[C@]1(C)O [G418]
[2]
  induction of hEpo expression compared to cells not given aminoglycoside: 20-50 fold
  read-through of the stop codon mutation: 10%
